Results taken from EPA's CvTdb concentration-time database (doi:10.1093/toxsci/kfy020).

How the values were obtained:
Assay in all cases: concentration in plasma after dosing
rat [1] = conditions: dosed: 2,4-D, 0.20467 mg/kg, iv, male, Sprague-Dawley
rat [2] = conditions: male, Sprague-Dawley
rat [3] = conditions: dosed: 2,4-D, 1.043 mg/kg, oral, male, Sprague-Dawley
rat [4] = conditions: dosed: 2,4-D, 0.20467 mg/kg, iv, male, Sprague-Dawley; remark: listed apart in the source
rat [5] = conditions: dosed: 2,4-D, 1.043 mg/kg, oral, male, Sprague-Dawley; remark: listed apart in the source
rat [6] = conditions: dosed: Boscalid, 1.0000000000 mg/kg, iv, male, Sprague-Dawley
rat [7] = conditions: dosed: Boscalid, 1.0000000000 mg/kg, iv, male, Sprague-Dawley; remark: listed apart in the source
rat [8] = conditions: dosed: Boscalid, 5.0000000000 mg/kg, oral, male, Sprague-Dawley
rat [9] = conditions: dosed: Boscalid, 5.0000000000 mg/kg, oral, male, Sprague-Dawley; remark: listed apart in the source
rat [10] = conditions: dosed: Boscalid, 5.0000000000 mg/kg, oral, male, Sprague-Dawley; remark: listed apart in the source
rat [11] = conditions: dosed: Cyclanilide, 0.2000000000 mg/kg, iv, male, Sprague-Dawley
rat [12] = conditions: dosed: Cyclanilide, 0.2000000000 mg/kg, iv, male, Sprague-Dawley; remark: listed apart in the source
rat [13] = conditions: dosed: Cyclanilide, 0.2000000000 mg/kg, iv, male, Sprague-Dawley; remark: listed apart in the source
rat [14] = conditions: dosed: Cyclanilide, 1.0000000000 mg/kg, oral, male, Sprague-Dawley
rat [15] = conditions: dosed: Cyclanilide, 1.0000000000 mg/kg, oral, male, Sprague-Dawley; remark: listed apart in the source
rat [16] = conditions: dosed: Cyclanilide, 1.0000000000 mg/kg, oral, male, Sprague-Dawley; remark: listed apart in the source
rat [17] = conditions: dosed: Etoxazole, 0.4000000000 mg/kg, iv, male, Sprague-Dawley
rat [18] = conditions: dosed: Etoxazole, 2.0000000000 mg/kg, oral, male, Sprague-Dawley
rat [19] = conditions: dosed: Etoxazole, 0.4000000000 mg/kg, iv, male, Sprague-Dawley; remark: listed apart in the source
rat [20] = conditions: dosed: Etoxazole, 2.0000000000 mg/kg, oral, male, Sprague-Dawley; remark: listed apart in the source
rat [21] = conditions: dosed: Etoxazole, 0.4000000000 mg/kg, iv, male, Sprague-Dawley; remark: listed apart in the source
rat [22] = conditions: dosed: Etoxazole, 2.0000000000 mg/kg, oral, male, Sprague-Dawley; remark: listed apart in the source
rat [23] = conditions: dosed: Etoxazole, 2.0000000000 mg/kg, oral, male, Sprague-Dawley; remark: listed apart in the source

O=C(O)COc1ccc(Cl)cc1Cl [2,4-D]
concentration in plasma [µg/mL]
Conditions	0.167 h	0.25 h	0.5 h	1 h	2 h	4 h	5 min	8 h	24 h
rat [1]	0.25	–	0.0797	0.0323	0.0307	0.00775	0.461	–	–
rat [3]	–	1.2	0.691	0.417	0.763	0.743	–	0.403	–
rat [4]	0.616	–	0.219	0.0759	0.00924	0.000324	0.911	–	–
rat [5]	–	1.44	1.25	0.817	0.859	0.688	–	0.504	0.00048

concentration in plasma [ng/mL], rat [2], dosed: 2,4-D
Conditions	0.167 h	0.25 h	0.5 h	1 h	2 h	4 h	5 min	8 h	24 h
0.20467 mg/kg, iv	466	–	192	71.5	22	1.84	710	–	–
1.043 mg/kg, oral	–	1030	1030	566	492	154	–	412	0.0594

O=C(Nc1ccccc1-c1ccc(Cl)cc1)c1cccnc1Cl [Boscalid]
concentration in plasma [µg/mL]
Conditions	0.25 h	0.5 h	1 h	2 h	4 h	5 min	8 h	10 min	12 h
rat [6]	–	0.146	0.0715	0.0284	0.0108	0.516	–	0.325	–
rat [7]	–	0.1	0.0576	0.0231	0.0125	0.366	0.00672	0.262	–
rat [8]	0.0305	0.0431	0.0319	0.0115	0.0085	–	0.0161	–	0.0211
rat [9]	0.0167	0.0225	0.0289	0.0309	0.0202	–	0.0223	–	0.0101
rat [10]	0.0299	0.0368	0.0186	0.0141	0.0055	–	–	–	0.0086

concentration in plasma [ng/mL], rat [2], dosed: Boscalid
Conditions	0.25 h	0.5 h	1 h	2 h	4 h	5 min	8 h	10 min	12 h
1.0000000000 mg/kg, iv	–	131	78	29.4	9.3	418	–	293	–
5.0000000000 mg/kg, oral	47.3	81.4	65.2	24.6	13.6	–	15.9	–	7.5

O=C(O)C1(C(=O)Nc2ccc(Cl)cc2Cl)CC1 [Cyclanilide]
concentration in plasma [µg/mL]
Conditions	rat [11]	rat [12]	rat [13]	rat [14]	rat [15]	rat [16]
0.25 h	–	–	–	0.1	1.14	0.869
0.5 h	0.972	1	0.727	1.12	0.646	1.06
1 h	0.639	0.744	0.91	1.21	0.801	0.808
2 h	0.475	0.364	0.416	0.918	0.568	0.575
4 h	0.251	0.222	0.262	0.827	0.464	0.482
5 min	1.73	1.52	1.56	–	–	–
8 h	0.077	0.0719	0.0811	0.507	0.336	0.2
10 min	2.25	1.2	1.4	–	–	–
12 h	0.0657	0.0688	0.0989	0.293	0.284	0.184
24 h	0.008	0.0077	0.0065	0.101	0.0187	0.0396
48 h	0.0021	0.0031	0.0008	0.0013	0.0015	–
72 h	0.0017	–	0.0012	0.0012	0.0013	–

rat [2], dosed: Cyclanilide
Conditions	concentration in plasma [ng/mL]
0.25 h, 1.0000000000 mg/kg, oral	1720
0.5 h, 0.2000000000 mg/kg, iv	1140
0.5 h, 1.0000000000 mg/kg, oral	1470
1 h, 0.2000000000 mg/kg, iv	982
1 h, 1.0000000000 mg/kg, oral	1150
2 h, 0.2000000000 mg/kg, iv	553
2 h, 1.0000000000 mg/kg, oral	780
4 h, 0.2000000000 mg/kg, iv	412
4 h, 1.0000000000 mg/kg, oral	518
5 min, 0.2000000000 mg/kg, iv	1960
8 h, 0.2000000000 mg/kg, iv	156
8 h, 1.0000000000 mg/kg, oral	617
10 min, 0.2000000000 mg/kg, iv	1780
12 h, 0.2000000000 mg/kg, iv	84.1
12 h, 1.0000000000 mg/kg, oral	234
24 h, 0.2000000000 mg/kg, iv	28.9
24 h, 1.0000000000 mg/kg, oral	24.9
48 h, 0.2000000000 mg/kg, iv	2.5
48 h, 1.0000000000 mg/kg, oral	1
72 h, 0.2000000000 mg/kg, iv	3.2
72 h, 1.0000000000 mg/kg, oral	1.5

CCOc1cc(C(C)(C)C)ccc1C1COC(c2c(F)cccc2F)=N1 (stereo not given) [Etoxazole]
concentration in plasma
Conditions	rat [17]	rat [18]	rat [19]	rat [20]	rat [21]	rat [22]	rat [23]
0.25 h	–	0.0146 µg/mL	–	0.00912 µg/mL	–	15.1 ng/mL	15.8 ng/mL
0.5 h	0.0436 µg/mL	0.023 µg/mL	20.5 ng/mL	0.0168 µg/mL	0.06 µg/mL	22.4 ng/mL	18.5 ng/mL
1 h	0.0157 µg/mL	0.0337 µg/mL	7.3 ng/mL	0.0253 µg/mL	0.0189 µg/mL	29.7 ng/mL	23.8 ng/mL
2 h	0.00419 µg/mL	0.0243 µg/mL	2.78 ng/mL	0.031 µg/mL	0.0047 µg/mL	31.5 ng/mL	7.62 ng/mL
4 h	0.00189 µg/mL	0.0119 µg/mL	1.69 ng/mL	0.00937 µg/mL	0.00086 µg/mL	13.6 ng/mL	2.16 ng/mL
5 min	0.126 µg/mL	–	78.2 ng/mL	–	0.142 µg/mL	–	–
8 h	0.00028 µg/mL	0.0103 µg/mL	0.69 ng/mL	–	0.00054 µg/mL	5.34 ng/mL	4.85 ng/mL
10 min	0.0725 µg/mL	–	50.2 ng/mL	–	0.0668 µg/mL	–	–
12 h	–	0.00145 µg/mL	0.56 ng/mL	–	–	1 ng/mL	1.6 ng/mL
24 h	–	0.00053 µg/mL	0.3 ng/mL	–	0.00036 µg/mL	0.46 ng/mL	0.18 ng/mL
48 h	–	0.00012 µg/mL	0.14 ng/mL	–	–	0.2 ng/mL	–
72 h	–	0.00013 µg/mL	–	–	–	0.16 ng/mL	–

rat [2], dosed: Etoxazole
Conditions	concentration in plasma [ng/mL]
0.25 h, 2.0000000000 mg/kg, oral	36
0.5 h, 0.4000000000 mg/kg, iv	31.1
0.5 h, 2.0000000000 mg/kg, oral	41.2
1 h, 0.4000000000 mg/kg, iv	14
1 h, 2.0000000000 mg/kg, oral	49.5
2 h, 0.4000000000 mg/kg, iv	3.62
2 h, 2.0000000000 mg/kg, oral	23.7
4 h, 0.4000000000 mg/kg, iv	1.53
4 h, 2.0000000000 mg/kg, oral	8.72
5 min, 0.4000000000 mg/kg, iv	145
8 h, 0.4000000000 mg/kg, iv	0.14
8 h, 2.0000000000 mg/kg, oral	11.7
10 min, 0.4000000000 mg/kg, iv	86.3
12 h, 2.0000000000 mg/kg, oral	1.84
24 h, 2.0000000000 mg/kg, oral	0.61
48 h, 2.0000000000 mg/kg, oral	0.15
72 h, 2.0000000000 mg/kg, oral	0.11
